Literature values, collected in patent publication US20080255091A1, “COMPOUNDS TO TREAT AMYLOIDOSIS AND PREVENT DEATH OF BETA-CELLS IN TYPE 2 DIABETES MELLITUS” (ASTRUM THERAPEUTICS PTY LTD., priority 2005, published 2008).

Test system: β-cell death induced by a fibrillogenic form of IAPP

| Molecule | prevention of β-cell death induced by a fibrillogenic form of IAPP |
| --- | --- |
| Nc1c(/N=N/c2ccc(-c3ccc(/N=N/c4cc(S(=O)(=O)O)c5ccccc5c4N)cc3)cc2)cc(S(=O)(=O)O)c2ccccc12 [Congo Red] | completely or partially prevented |
| SNNFGA: the peptide SNNFGA, anti-amyloidosis agent from the literature (Islet amyloid polypeptide; UniProt P10997 53-58, looked up, fragment) | completely or partially prevented |
